Test results from BigSolDB 2.1.

COC(=O)/C=C(\C)NC(C(=O)[O-])c1ccc(O)cc1.[K+] (stereo not given)
Settings	solubility (mole fraction)
in ethanol, 278.22 K	0.000319
in ethanol, 283.26 K	0.000342
in ethanol, 288.21 K	0.000369
in ethanol, 293.04 K	0.0004
in ethanol, 298.07 K	0.000438
in ethanol, 303.29 K	0.000481
in ethanol, 308.21 K	0.000527
in ethanol, 313.09 K	0.000577
in ethanol, 318.23 K	0.000635
in ethanol, 323.11 K	0.000694
in methanol, 278.24 K	0.00281
in methanol, 283.28 K	0.00303
in methanol, 288.04 K	0.00325
in methanol, 293.35 K	0.0035
in methanol, 298.31 K	0.00375
in methanol, 302.97 K	0.00398
in methanol, 308.19 K	0.00426
in methanol, 313.32 K	0.00453
in methanol, 318.11 K	0.0048
in methanol, 322.45 K	0.00505
